Non-standard residues stand in square brackets, D forms with d. Residues, ends and D or L forms follow the SMILES beside them. No end group written: not given here.
How the values were obtained:
APP/PS1 transgenic mice = assay: Brain pathology after 21 days of treatment; format: in vivo; settings: 100 nMol/kg i.p. once daily
Source text: APPswe/PS1ΔE9 mice with a C57Bl/6 background (APP/PS1 mice) were obtained from the Jackson lab (http://research.iax.org/repository/alzheimers.html). To determine if Flu-RI-OR2-TAT crosses the blood brain barrier (Example 4), 2 male 17-months-old APP/PS1 animals and 2 16-months-old C57BL6 animals were used. To look at the effects of RI-OR2-TAT on mouse brain pathology (Example 5), 8 female 10-months-old APP/PS1 mice were used. The animals were housed in single cages in a temperature controlled holding room (21.5° C.±1) with 12:12 h light and dark cycle. Food and water was available ad libitum.
For Example 5, 4 animals were injected intraperitonially (i.p.) with 0.9% NaCl (vehicle control) and the other 4 with RI-OR2-TAT (100 nMol/Kg in 0.9% NaCl) once daily, for 21 days. On the 22nd day, the animals were perfused transcardially with ice-cold PBS and 4% paraformaldehyde and then the brains were removed and post-fixed in 4% ice cold paraformaldehyde.
All brains in paraformaldehyde were transferred to 30% sucrose overnight and then snap frozen with Envirofreez™ (Sigma, UK) and, using a Leica cryostat, 40 microns thick coronal sections were cut at anatomical regions of −2 to −3 bregma. Sections were preserved in cryoprotect with the first section taken at random and then every 5th section afterwards.
For Example 5, to stain for activated microglia, an inflammation response marker, sections were pretreated with 0.05 M sodium citrate buffer, pH 9, and incubated at 90° C. for 30 mins and stained with anti Iba-1 (1:2000 dilution, Wako 016-20001, Germany). For the oxidative stress marker, DNA denaturation was carried out with 2N HCl and the sections were stained for 8-oxo guanine (1:200 dilution, MAB3560, Millipore). Young immature neurons were detected by immunostaining for doublecortin (1:200 dilution, sc-66911, Santa Cruz Biotechnology). Total plaque load was quantified by immunostaining for β-amyloid (1:200 dilution, Invitrogen, 71-5800).
All sections were visualized using an Axio Scope 1 fluorescence microscope (Zeiss, Germany). For quantification, two images per section were taken from the cortex area with a 10× objective for 8-oxo guanine and β-amyloid staining, and a 100× objective for Iba1 staining, with a minimum of 5 sections visualized per animal. Image analysis was performed using multi threshold plug in Image J (NIH, USA).
Human oligomerised Aβ was measured using a kit purchased from Invitrogen, according to the manufacturer's instructions. Briefly, the right hemispheres from the brains of transgenic APP/PS1 mice treated with RI-OR2-TAT, or controls, were pooled separately and homogenized. Quantification of total protein was determined using the Bradford protein assay and was measured on a Nanophotometer (Implen, Germany). The homogenates were centrifuged at 100,000 g at 4° C. for 1 h. The supernatant was then diluted 1:10 before carrying out the sandwich ELISA, which measures soluble Aβ oligomer levels, but not amyloid monomers, as detailed in the manufacturer's protocol. The final AR oligomer values were determined following normalization of total protein levels.

SHSY-5Y cells = assay: MTT cell viability assay, protection from pre-aggregated Aβ1-42; format: cell-based; settings: for Absorption units (560 nm): control with Abeta 2.467, no Abeta 3.608
Description: SHSY 5Y cells were grown and maintained in DMEM (Dulbecco's Modified Eagle Medium) supplemented with FBS under standard mammalian cell culture conditions. During treatment cells were kept in Optimem plus or minus peptide liposomes in 96 well plates at 20000 cells per well for 24 hours, again under standard culture conditions. For cell protection assays 5 μM of pre-aggregated Aβ1-42 was added at the same time as peptide liposomes. Cell viability was assessed for four wells for each treatment using a Promega CellTiter assay kit.

Row | Molecule | increase of mean number of young doublecortin-expressing neurons in the dentate region (APP/PS1 transgenic mice) | reduction of cortical level of 8-oxo-guanine immunostaining (APP/PS1 transgenic mice) | reduction of number of activated microglia in the cortex (APP/PS1 transgenic mice; Iba1 immunostaining) | reduction of soluble Aβ oligomer levels in the brain (APP/PS1 transgenic mice; sandwich ELISA) | reduction of amyloid plaque load in the cortex (APP/PS1 transgenic mice; versus saline, β-amyloid immunostaining) | Absorption units (560 nm) (SHSY-5Y cells; PINPs 0.01 μM plus 5 μM pre-aggregated Aβ1-42) | Absorption units (560 nm) (SHSY-5Y cells; PINPs 0.1 μM plus 5 μM pre-aggregated Aβ1-42) | Absorption units (560 nm) (SHSY-5Y cells; PINPs 1 μM plus 5 μM pre-aggregated Aβ1-42) | Absorption units (560 nm) (SHSY-5Y cells; PINPs 10 μM plus 5 μM pre-aggregated Aβ1-42) | cell viability in the presence of pre-aggregated Aβ1-42 (SHSY-5Y cells; PINPs at 10, 1, 0.1, 0.01 μM)
1 | CC(=O)N[C@H](CCCNC(=N)N)C(=O)NCC(=O)N[C@H](Cc1ccccc1)C(=O)N[C@H](Cc1ccccc1)C(=O)N[C@@H](C(=O)N[C@H](CC(C)C)C(=O)N[C@H](CCCCN)C(=O)NCC(=O)N[C@H](CCCNC(=N)N)C(=O)N[C@H](CCCNC(=N)N)C(=O)N[C@H](CCCNC(=N)N)C(=O)N[C@H](CCCNC(=N)N)C(=O)N[C@H](CCC(N)=O)C(=O)N[C@H](CCCNC(=N)N)C(=O)N[C@H](CCCNC(=N)N)C(=O)N[C@H](CCCCN)C(=O)N[C@H](CCCCN)C(=O)N[C@H](CCCNC(=N)N)C(=O)NCC(=O)N[C@H](Cc1ccc(O)cc1)C(N)=O)C(C)C [RI-OR2-TAT, Ac-rGffvlkGrrrrqrrkkrGy-NH2] (Ac-[dR]G[dF][dF][dV][dL][dK]G[dR][dR][dR][dR][dQ][dR][dR][dK][dK][dR]G[dY]-NH2) | 210% | 25% | 44% | 25% | 32% | – | – | – | – | –
2 | PINPs: RI-OR2-TAT covalently attached to nanoliposomes (cholesterol:sphingomyelin [1:1] with 2.5% maleimide) via an additional cysteine (Ac-[dR]G[dF][dF][dV][dL][dK]G[dR][dR][dR][dR][dQ][dR][dR][dK][dK][dR]G[dY][dC]; not fully specified (residue 21); also: C-terminal D-Cys coupled via its thiol to maleimide lipid of nanoliposome) | – | – | – | – | – | 3.370 Absorption units | 3.478 Absorption units | 3.252 Absorption units | 3.538 Absorption units | cell viability remained near that of untreated cells

From patent US9579358B2, “Compositions for binding to amyloid proteins” (LANCASTER UNIVERSITY BUSINESS ENTERPRISES LIMITED, priority 2011, dated 2017)
